{
  "source": "ChEMBL document CHEMBL3822367",
  "about": "“Use of Photosensitizers in Semisolid Formulations for Microbial Photodynamic Inactivation” (2016)",
  "format_in_all_cases": "functional",
  "key": {"[1]": {"tested_on": "Burkholderia cepacia", "assay": "Antibacterial activity against Burkholderia cepacia assessed as cell killing at 250 ug/ml after 15 mins followed by irradiation with paterson lamp at 100 J/cm'2 by serial ten fold dilution method"}, "[2]": {"tested_on": "Staphylococcus aureus", "assay": "Antibacterial activity against methicillin-resistant Staphylococcus aureus 180 assessed as planktonic cell killing at 5 ug/ml after 15 mins followed by irradiation with paterson lamp at 100 J/cm'2 by serial ten fold dilution method"}, "[3]": {"tested_on": "Staphylococcus aureus", "assay": "Antibiofilm activity against Staphylococcus aureus SH1000 after 24 hrs by plate count method"}, "[4]": {"tested_on": "Staphylococcus aureus", "assay": "Antibacterial activity against Staphylococcus aureus SH1000 in stationary phase assessed as reduction in cell viability at 4 times MIC after 2 hrs by time kill kinetic assay relative to control"}, "[5]": {"tested_on": "Staphylococcus aureus", "assay": "Antibiofilm activity against Staphylococcus aureus SH1000 assessed as inhibition of planktonic bacterial growth after 24 hrs by turbidity method", "details": "SH1000, 24 h"}, "[6]": {"tested_on": "Candida albicans", "assay": "Antibiofilm activity against Candida albicans ATCC-MYA-273 assessed as cell killing at 1 uM irradiated with blue light at 48 J/cm'2 for 4 hrs by microplate reader method"}, "[7]": {"tested_on": "Staphylococcus aureus", "assay": "Antibacterial activity against methicillin-resistant Staphylococcus aureus ATCC BAA-44 infected in porcine stratum corneum assessed as reduction in viable cells at 10 uM preincubated for 1 hr with bacteria prior to application of bacteria on skin incubated for 5 to 240 mins followed by irradiation with blue light"}, "[8]": {"tested_on": "Candida albicans", "assay": "Antimicrobial activity against Candida albicans ATCC-MYA-273 assessed as reduction in planktonic cell viability at 0.5 uM irradiated with blue light at 12 J/cm'2 for 15 mins by ten fold serial dilution method"}, "[9]": {"tested_on": "Staphylococcus aureus", "assay": "Antibacterial activity against methicillin-resistant Staphylococcus aureus 180 assessed as planktonic cell killing at 50 ug/ml after 15 mins followed by irradiation with paterson lamp at 100 J/cm'2 by serial ten fold dilution method"}, "[10]": {"tested_on": "Pseudomonas aeruginosa", "assay": "Antibacterial activity against Pseudomonas aeruginosa ATCC 9027 assessed as planktonic cell killing using laser illumination at 15.5 J/cm'2"}, "[11]": {"tested_on": "Pseudomonas aeruginosa", "assay": "Antibiofilm activity against Pseudomonas aeruginosa ATCC 9027 assessed as decrease in cell viability using laser illumination at 13.2 J"}, "[12]": {"tested_on": "Trichophyton rubrum", "assay": "Antifungal activity against Trichophyton rubrum infected in mouse assessed as reduction in fungal burden using light source at 42 J/cm'2 for 10 mins for 7 days", "design": "scale not given: the % may be the effect or the level left"}},
  "data": [
    {"molecule": "C[n+]1ccc(-c2c3nc(c(-c4cc[n+](C)cc4)c4ccc([nH]4)c(-c4cc[n+](C)cc4)c4nc(c(-c5cc[n+](C)cc5)c5ccc2[nH]5)C=C4)C=C3)cc1.Cc1ccc(S(=O)(=O)[O-])cc1.Cc1ccc(S(=O)(=O)[O-])cc1.Cc1ccc(S(=O)(=O)[O-])cc1.Cc1ccc(S(=O)(=O)[O-])cc1", "values": [
      {"measurement": "Activity", "setting": "[1]", "value": 99.9, "unit": "%"},
      {"measurement": "Activity", "setting": "[2]", "value": 100, "unit": "%"}
    ]},
    {"molecule": "C[N+](C)(C)CCCOc1cccc(-c2c3nc(cc4ccc([nH]4)c(-c4cccc(OCCC[N+](C)(C)C)c4)c4nc(cc5ccc2[nH]5)C=C4)C=C3)c1.[Cl-].[Cl-]", "values": [
      {"measurement": "MBEC", "setting": "[3]", "value": 2, "unit": "mg/L"},
      {"measurement": "Activity", "setting": "[4]", "value": ">=5 deltalog10CFU/ml"},
      {"measurement": "MIC", "setting": "[5]", "value": 1, "unit": "µg/mL"}
    ]},
    {"molecule": "N=C(NCCCCCCNC(=N)NC(=N)Nc1ccc(Cl)cc1)NC(=N)Nc1ccc(Cl)cc1", "note": "[CHLORHEXIDINE]", "values": [
      {"measurement": "Activity", "setting": "[4]", "value": 3, "unit": "deltalog10CFU/ml"}
    ]},
    {"molecule": "C[N+](C)(C)CCCOc1ccc(-c2c3nc(cc4ccc([nH]4)c(-c4ccc(OCCC[N+](C)(C)C)cc4)c4nc(cc5ccc2[nH]5)C=C4)C=C3)cc1.[Cl-].[Cl-]", "note": "[EXEPORFINIUM CHLORIDE]", "values": [
      {"measurement": "MBEC", "setting": "[3]", "value": 2, "unit": "mg/L"},
      {"measurement": "Activity", "setting": "[4]", "value": ">=5 deltalog10CFU/ml"},
      {"measurement": "Activity", "setting": "[6]", "value": 5, "unit": "deltalog10CFU/ml"},
      {"measurement": "Activity", "setting": "[7]", "value": 3.6, "unit": "deltalog10CFU/ml"},
      {"measurement": "Activity", "setting": "[8]", "value": 6, "unit": "deltalog10CFU/ml"},
      {"measurement": "MIC", "setting": "[5]", "value": 1, "unit": "µg/mL"}
    ]},
    {"molecule": "CN(C)c1ccc2nc3ccc(N(C)C)cc3[s+]c2c1.[Cl-]", "note": "[METHYLENE BLUE ANHYDROUS]", "values": [
      {"measurement": "Activity", "setting": "[1]", "value": 100, "unit": "%"},
      {"measurement": "Activity", "setting": "[9]", "value": 100, "unit": "%"},
      {"measurement": "Activity", "setting": "[10]", "value": 100, "unit": "%"},
      {"measurement": "Activity", "setting": "[11]", "value": ">99.999", "unit": "%"}
    ]},
    {"molecule": "Cc1cc2nc3ccc(N(C)C)cc3[s+]c2cc1N.[Cl-]", "note": "[TOLONIUM CHLORIDE]", "values": [
      {"measurement": "Activity", "setting": "[12]", "value": 87, "unit": "%"}
    ]},
    {"molecule": "Cetyltrimethylammonium bromide", "values": [
      {"measurement": "Activity (deltalog10CFU/ml)", "setting": "[4]", "value": 3}
    ]}
  ]
}
